# Where “and” joins values, the source holds several entries; their conditions need not be identical. Equal entries are not always repeated.
# T1: atATC (Arabidopsis ATC aa 82–390) WT (Arabidopsis thaliana, UniProt P49077)
# T1 construct: 2.6 kDa fusion tag (modified pET28a); made in house; host or cells: E. coli BLR(DE3)-pLysS
# T1 sequence (P49077 82-390): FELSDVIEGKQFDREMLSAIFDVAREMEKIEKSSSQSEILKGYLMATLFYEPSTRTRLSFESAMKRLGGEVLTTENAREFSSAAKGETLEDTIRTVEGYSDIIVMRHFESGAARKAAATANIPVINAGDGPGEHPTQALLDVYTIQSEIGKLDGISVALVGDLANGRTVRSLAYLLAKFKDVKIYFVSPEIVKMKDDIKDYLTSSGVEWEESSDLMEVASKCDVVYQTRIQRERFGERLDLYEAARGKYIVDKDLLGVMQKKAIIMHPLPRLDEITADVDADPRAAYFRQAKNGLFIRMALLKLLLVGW
# T2: atATC-F161A (Arabidopsis thaliana, UniProt P49077, F161A)
# T2 construct: 2.6 kDa fusion tag (modified pET28a); made in house; host or cells: E. coli BLR(DE3)-pLysS
# T2 sequence (P49077 82-390 F161A): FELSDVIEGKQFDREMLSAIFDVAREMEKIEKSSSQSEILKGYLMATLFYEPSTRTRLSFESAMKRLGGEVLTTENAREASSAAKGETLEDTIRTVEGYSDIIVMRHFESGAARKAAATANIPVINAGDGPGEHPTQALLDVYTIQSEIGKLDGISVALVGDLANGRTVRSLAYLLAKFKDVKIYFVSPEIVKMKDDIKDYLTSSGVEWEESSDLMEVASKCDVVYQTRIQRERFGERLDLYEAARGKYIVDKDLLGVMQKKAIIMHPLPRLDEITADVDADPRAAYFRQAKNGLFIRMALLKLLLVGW
# T3: atATC WT (Arabidopsis thaliana, UniProt P49077)
# T3 construct: 2.6 kDa fusion tag (modified pET28a); made in house; host or cells: E. coli BLR(DE3)-pLysS
# T3 sequence (P49077 82-390): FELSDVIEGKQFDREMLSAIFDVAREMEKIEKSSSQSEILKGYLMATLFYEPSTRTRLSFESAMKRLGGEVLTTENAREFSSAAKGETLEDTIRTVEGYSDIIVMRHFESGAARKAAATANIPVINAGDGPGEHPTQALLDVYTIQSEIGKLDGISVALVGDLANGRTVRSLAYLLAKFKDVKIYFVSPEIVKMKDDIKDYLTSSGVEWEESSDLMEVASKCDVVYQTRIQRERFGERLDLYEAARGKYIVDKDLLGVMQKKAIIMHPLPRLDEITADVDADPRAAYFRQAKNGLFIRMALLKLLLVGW
# Tests used:
# [1] = molecular target: T1, atATC (Arabidopsis ATC aa 82–390) WT; assay: Isothermal titration calorimetry (ITC), atATC WT; assay type: binding; conditions: site 1
# Protocol: (§1) Experiments were performed in an Auto-iTC200 calorimeter (MicroCal, Malvern-Panalytical) at 25 °C with a 0.2 ml reaction cell and 30–40 µM protein solution (in protomer units) in the cell. […] All solutions were in GF buffer and degassed and mixed in the cell by stirring at 750 rpm. Data analysis was performed with Origin 7 (OriginLab) using a general three-site cooperative and a non-cooperative binding model, restricted to one or two ligand binding sites when convenient[24],[62],[63]. Non-linear least-squares regression analysis was employed to estimate dissociation constants for the interaction of the different ligands with ATC.
# [2] = molecular target: T2, atATC-F161A; assay: biochemical; assay type: binding
# Protocol: as §1
# [3] = molecular target: T2, atATC-F161A; assay: Colorimetric ATC activity assay, atATC F161A; assay type: biochemical; conditions: for Activity F161A: 10 mM Asp
# Protocol: (§2) Activity was assayed by a colorimetric method[64] adapted to a 96-well plate format. […] Reagent B is light sensitive and was stored at 4 °C in the dark. The color reagents were gently mixed and stored at 4 °C in the dark until added to the sample. Reaction tubes were closed, boiled at 95 °C for 15 min, and kept in the dark for 30 min before measuring the absorbance at 450 nm in a Tecan infinite m200 microplate reader (Tecan). […] Data analysis was done with GraphPad. […] Protein concentration in the assay was 0.3 µM (0.01 mg ml^−1) both for WT and F161A.
# [4] = test system: Arabidopsis seedlings; assay: Seedling assay in liquid culture with PALA (fresh weight, root length); assay type: in vivo, Arabidopsis thaliana; conditions: for fresh weight compared to untreated seedlings / root length relative to untreated seedlings / root length, average: 7 days; for fresh weight compared to untreated seedlings: n = 3 (3 times 10 seedlings); for root length relative to untreated seedlings / root length, average: n = 30; for root length, average: untreated 2.68 ± 0.49 cm; for Freshweight, single replicates (10 seedlings): source data of Figure 3a; for Freshweight, average (10 seedlings): 0 mM PALA 0.1699 g
# Protocol: For DNA isolation, tissue collection and phenotypic inspection, wild-type Col-0 and transgenic Arabidopsis thaliana (L.) Heynh. plants (ecotype Columbia) were used throughout. Plants were grown in standardized soil (ED73 Einheitserde, Humuswerke Patzer) soil under long day conditions (120 μmol quanta m^−2 s^−1 in a […] regime, temperature 22 °C, humidity 60%). Prior to germination, seeds were incubated for 24 h in the dark at 4 °C for imbibition. […] The liquid cultures were maintained on a shaker at 100 rpm under the same light and temperature conditions as soil-grown plants. Leaf extract of wild-type and mutants was prepared by homogenizing leaf material in extraction buffer (50 mM HEPES-KOH pH 7.2, 5 mM MgCl2, 2 mM phenylmethylsulfonyl fluoride (PMSF) on ice. The homogenous extract was centrifuged at 20,000g for 10 min at 4 °C. The supernatant was collected and stored on ice until use.
# [5] = molecular target: T3, atATC WT; assay: Colorimetric ATC activity assay, atATC WT; assay type: biochemical; conditions: 10 mM Asp
# Protocol: as §2
# [6] = test system: plant ATCs; set-up: method as in PMID 14479231, doi:10.1093/jxb/40.10.1121; conditions: cited from earlier work
# [7] = molecular target: the molecule itself; assay: SEC-MALS; 400 ul of purified protein at 1.4 mg/ml on Superdex 200 10/300 in GF buffer (20 mM Tris pH 7.0, 0.1 M NaCl, 2% glycerol, 0.2 mM TCEP), 0.5 ml/min; self-association: homotrimer
# [8] = substrate: NC(=O)OP(=O)(O)O; assay: purified protein, by the assay type; conditions: other: WT, CP variable, 10 mM Asp, absence of UMP; pH 8.3
# [9] = molecular target: the molecule itself; assay: crystal structure; X-ray crystal structures of the trimer (with UMP, apo, with PALA, with PALA + CP, with CP; F161A with UMP or PALA); sitting-drop vapor diffusion at room temperature, PEG 3350 conditions, data at 100 K
# [10] = substrate: NC(=O)OP(=O)(O)O; assay: Colorimetric ATC activity assay, atATC F161A; assay type: biochemical, Arabidopsis thaliana; conditions: other: F161A, CP variable, 10 mM Asp; pH 8.3
# Protocol: Activity was assayed by a colorimetric method[64] adapted to a 96-well plate format[24]. […] Reagent B is light sensitive and was stored at 4 °C in the dark. The color reagents were gently mixed and stored at 4 °C in the dark until added to the sample. Reaction tubes were closed, boiled at 95 °C for 15 min, and kept in the dark for 30 min before measuring the absorbance at 450 nm in a Tecan infinite m200 microplate reader (Tecan). […] Data analysis was done with GraphPad. In the absence of inhibitors, WT kinetics obey Michaelis-Menten equation v = [Vmax·X/K0.5 + X], where X is substrate concentration and K0.5 is the substrate concentration at which the initial rate (v) is one-half of the maximum velocity (Vmax)]. […] Protein concentration in the assay was 0.3 µM (0.01 mg ml^−1) both for WT and F161A.
molecule,measurement,setting,value
"O=C(O)C[C@H](NC(=O)CP(=O)(O)O)C(=O)O [PALA, N-(phosphonacetyl)-L-aspartate]",-TΔS Site 1,[1]; ITC,-21.6 kcal/mol
same,ΔG Site 1,[1]; ITC,-8.5 kcal/mol
same,ΔH Site 1,[1]; ITC,13.1 kcal/mol
same,Kd,"[1]; KD Site 1, ITC, 25 °C",590 nM and 600 nM
same,Kd,[2],120 nM
same,"N, number of binding sites per protein trimer according to the ligand binding model","[2]; ITC, F161A",1
same,fold higher affinity of F161A than WT,"[2]; ITC, F161A versus WT",5 fold
same,-TΔS Site 1,"[2]; ITC, F161A, site 1",-20.4 kcal/mol
same,ΔG Site 1,"[2]; ITC, F161A, site 1",-9.4 kcal/mol
same,ΔH Site 1,"[2]; ITC, F161A, site 1",11.0 kcal/mol
same,Activity F161A,"[3]; 0.01 mM PALA, [CP] 0.15 mM",4.41 nmol / min μg and 6.29 nmol / min μg and 5.34 nmol / min μg
same,Activity F161A,"[3]; 0.01 mM PALA, [CP] 0.31 mM",5.13 nmol / min μg and 6.44 nmol / min μg and 9.47 nmol / min μg
same,Activity F161A,"[3]; 0.01 mM PALA, [CP] 0.63 mM",25.34 nmol / min μg and 31.98 nmol / min μg and 21.75 nmol / min μg
same,Activity F161A,"[3]; 0.01 mM PALA, [CP] 1.25 mM",39.80 nmol / min μg and 37.97 nmol / min μg and 40.98 nmol / min μg
same,Activity F161A,"[3]; 0.01 mM PALA, [CP] 2.50 mM",38.56 nmol / min μg and 36.28 nmol / min μg and 37.57 nmol / min μg
same,Activity F161A,"[3]; 0.1 mM PALA, [CP] 1.25 mM",11.15 nmol / min μg and 10.75 nmol / min μg and 7.03 nmol / min μg
same,Activity F161A,"[3]; 0.1 mM PALA, [CP] 2.50 mM",5.52 nmol / min μg and 9.09 nmol / min μg and 9.11 nmol / min μg
same,sensitivity of enzyme activity to PALA compared to WT,[3]; F161A,more sensitive
same,fresh weight compared to untreated seedlings,[4]; 0.2 mM PALA,59%
same,root length relative to untreated seedlings,[4]; 0.2 mM PALA,36%
same,"root length, average",[4]; 0.2 mM PALA,0.96 ± 0.22 cm and 0.962 cm
same,"Freshweight, single replicates (10 seedlings)",[4]; 0.2 mM PALA,0.1006 g and 0.0950 g and 0.1032 g
same,"Freshweight, average (10 seedlings)",[4]; 0.2 mM PALA,0.0996 g
same,fresh weight compared to untreated seedlings,[4]; 0.4 mM PALA,23%
same,root length relative to untreated seedlings,[4]; 0.4 mM PALA,8%
same,"root length, average",[4]; 0.4 mM PALA,0.21 ± 0.09 cm and 0.213 cm
same,"Freshweight, single replicates (10 seedlings)",[4]; 0.4 mM PALA,0.0435 g and 0.0329 g and 0.0417 g
same,"Freshweight, average (10 seedlings)",[4]; 0.4 mM PALA,0.0394 g
same,chlorosis of seedlings,[4]; PALA-treated seedlings,Chlorosis was also apparent
same,Activity WT,"[5]; 0.01 mM PALA, [CP] 0.16 mM",17.11 nmol / min μg and 10.69 nmol / min μg and 14.77 nmol / min μg
same,Activity WT,"[5]; 0.01 mM PALA, [CP] 0.31 mM",20.84 nmol / min μg and 20.81 nmol / min μg and 18.28 nmol / min μg
same,Activity WT,"[5]; 0.01 mM PALA, [CP] 0.63 mM",27.62 nmol / min μg and 26.91 nmol / min μg and 26.59 nmol / min μg
same,Activity WT,"[5]; 0.01 mM PALA, [CP] 1.25 mM",40.50 nmol / min μg and 40.46 nmol / min μg and 40.29 nmol / min μg
same,Activity WT,"[5]; 0.01 mM PALA, [CP] 2.50 mM",50.62 nmol / min μg and 53.39 nmol / min μg and 49.84 nmol / min μg
same,Activity WT,"[5]; 0.01 mM PALA, [CP] 5.00 mM",66.15 nmol / min μg and 65.77 nmol / min μg and 55.96 nmol / min μg
same,Activity WT,"[5]; 0.1 mM PALA, [CP] 0.31 mM",4.77 nmol / min μg and 4.92 nmol / min μg and 5.38 nmol / min μg
same,Activity WT,"[5]; 0.1 mM PALA, [CP] 0.63 mM",10.55 nmol / min μg and 10.43 nmol / min μg and 10.56 nmol / min μg
same,Activity WT,"[5]; 0.1 mM PALA, [CP] 1.25 mM",19.60 nmol / min μg and 18.57 nmol / min μg and 27.14 nmol / min μg
same,Activity WT,"[5]; 0.1 mM PALA, [CP] 2.50 mM",27.12 nmol / min μg and 29.01 nmol / min μg and 31.29 nmol / min μg
same,Activity WT,"[5]; 0.1 mM PALA, [CP] 5.00 mM",33.74 nmol / min μg and 33.21 nmol / min μg
O=c1ccn([C@@H]2O[C@H](COP(=O)(O)OP(=O)(O)OP(=O)(O)O)[C@@H](O)[C@H]2O)c(=O)[nH]1 [UTP],inhibition of plant ATCs,[6],not inhibitors
O=c1ccn([C@@H]2O[C@H](COP(=O)(O)OP(=O)(O)O)[C@@H](O)[C@H]2O)c(=O)[nH]1 [UDP],inhibition of plant ATCs,[6],not inhibitors
"Arabidopsis aspartate transcarbamoylase, construct spanning aa 82-390 (atATC) (enzyme, Arabidopsis thaliana, UniProt P49077 82-390, looked up, Aspartate transcarbamoylase (ATC; pyrB; At3g20330) of Arabidopsis thaliana, aa 82-390 of the 390 aa precursor protein with an N-terminal chloroplast transit peptide; amplified from cDNA; No cleavage of the tag is described, and the text speaks of the size of purified atATC 'excluding the 2.6 kDa fusion tag', so the tag was probably kept; It is probably a His tag (Ni-sepharose purification); The …) FELSDVIEGKQFDREMLSAIFDVAREMEKIEKSSSQSEILKGYLMATLFYEPSTRTRLSFESAMKRLGGEVLTTENAREFSSAAKGETLEDTIRTVEGYSDIIVMRHFESGAARKAAATANIPVINAGDGPGEHPTQALLDVYTIQSEIGKLDGISVALVGDLANGRTVRSLAYLLAKFKDVKIYFVSPEIVKMKDDIKDYLTSSGVEWEESSDLMEVASKCDVVYQTRIQRERFGERLDLYEAARGKYIVDKDLLGVMQKKAIIMHPLPRLDEITADVDADPRAAYFRQAKNGLFIRMALLKLLLVGW",stoichiometry N,[7],3
same,K0.5,[8],0.46 ± 0.10 mM
"atATC mutant F161A (enzyme, Arabidopsis thaliana, UniProt P49077 82-390, looked up, Aspartate transcarbamoylase (ATC; pyrB; At3g20330) of Arabidopsis thaliana, aa 82-390 of the 390 aa precursor protein, with F161 replaced by Ala; Made by site-directed mutagenesis of the atATC construct; same tag and purification as m1; also called atATC-F161A; source: E. coli BLR(DE3)-pLysS, purified (Ni-sepharose, size-exclusion chromatography on Superdex 75); not shown: fusion tag (2.6 kDa)) FELSDVIEGKQFDREMLSAIFDVAREMEKIEKSSSQSEILKGYLMATLFYEPSTRTRLSFESAMKRLGGEVLTTENAREASSAAKGETLEDTIRTVEGYSDIIVMRHFESGAARKAAATANIPVINAGDGPGEHPTQALLDVYTIQSEIGKLDGISVALVGDLANGRTVRSLAYLLAKFKDVKIYFVSPEIVKMKDDIKDYLTSSGVEWEESSDLMEVASKCDVVYQTRIQRERFGERLDLYEAARGKYIVDKDLLGVMQKKAIIMHPLPRLDEITADVDADPRAAYFRQAKNGLFIRMALLKLLLVGW",binding result,[9],binds
same,K0.5,[10],0.62 ± 0.13 mM

# Source: article PMC7878868, “Mechanisms of feedback inhibition and sequential firing of active sites in plant aspartate transcarbamoylase” (Nature Communications, 2021)
